The values that follow come from patent US8455497B2, “Inhibitors of aspartyl protease” (Vertex Pharmaceuticals Incorporated, priority 1999, dated 2013).

Molecules are shown by their SMILES. Read-outs that look alike come from different tables or passages of the source.

In experiment [1] the test system is HIV-1 (strain IIIB). In words: Antiviral activity assay in MT4 cells (propidium iodide based). It is filed as cell-based. The following applies: wild type HIV-1 virus, MT4 cells, read-out: Wildtype virus - IC50. In outline: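 Compound serial dilutions in RPMI/FCS received MT4 cells pre-infected 1 hr at 37°C with HIV-1 IIIB at 100×TCID50. After 5 days' culture and Nonidet-40 lysis, well DNA content was measured by propidium iodide dye; mock-infected cells served as control.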

Experiment [2] deals with D545701-14 multi protease inhibitor resistant virus. In words: Anti-viral activity against resistant virus D545701-14 in MT4 cells. It is filed as cell-based, HIV-1.
Experiment [3] concerns EP13 multi protease inhibitor resistant virus. Briefly: Anti-viral activity against resistant virus EP13 in MT4 cells. It is filed as cell-based, HIV-1. As for the experimental part: Exponentially growing MT4 cells were harvested and centrifuged at 1000 rpm for 10 min in a Jouan centrifuge (model CR 4 12). […] Cell aliquots were infected by the addition of HIV-1 (strain IIIB) diluted to give a viral multiplicity of infection of 100×TCID50. […] Cell infection was allowed to proceed for 1 hr at 37° in a tissue culture incubator with humidified 5% CO2 atmosphere. After the 1 hr incubation the virus/cell suspensions were diluted 6-fold with fresh medium, and 125 μl of the cell suspension was added to each well of the plate containing pre-diluted compound. Plates were then placed in a tissue culture incubator with humidified 5% CO2 for 5 days. At the end of the incubation period, 27 μl of 5% Nonidet-40 was added to each well of the incubation plate. After thorough mixing with a Costar multitip pipetter, 60 μl of the mixture was transferred to filter-bottomed 96-well plates. The plates were analyzed in an automated assay instrument (Screen Machine, Idexx Laboratories). The assay makes use of a propidium iodide dye to estimate the DNA content of each well.
Anti-Viral Activity Against Resistant Viruses
EP13 and DS45701, two multi protease inhibitor resistant viruses were used to assess potency against mutant viruses. These viruses contain the following mutations relative to the consensus sequence of wild type virus:
EP13: Protease amino acid sequence: M46I, L63P, A71V, V82F/L, I84V; No reverse transcriptase mutations.

[4] abbreviates: Human immunodeficiency virus 1, IIIB.
Where [5] appears, read: Human immunodeficiency virus 1, MT4, read-out: D545701-14 mutant - IC50.
Setting [6] is: Human immunodeficiency virus 1, MT4, read-out: EP13 mutant IC50.
[7] abbreviates: D545701-14 multi protease inhibitor resistant virus, MT4 cells, read-out: D545701-14 mutant - IC50.
Where [8] appears, read: EP13 multi protease inhibitor resistant virus, MT4 cells, read-out: EP13 mutant IC50.
Where [9] appears, read: Human immunodeficiency virus 1, MT4, read-out: D545701-14 mutant - IC50, D545701-14 multi protease inhibitor resistant virus, MT4 cells.
[10] abbreviates: Human immunodeficiency virus 1, MT4, read-out: EP13 mutant IC50, EP13 multi protease inhibitor resistant virus, MT4 cells.

Usually IC50 stands for the point on the concentration scale where inhibition reaches its midpoint. For the molecule `COC(=O)NCCOc1ccc(C[C@H](NC(=O)O[C@H]2CO[C@H]3OCC[C@H]32)[C@H](O)CN(CC(C)C)S(=O)(=O)c2ccc3c(c2)OCO3)cc1` [Compound 226, (3R,3aS,6aR)-hexahydrofuro[2,3-b]furan-3-yl (1S,2R)-3-[(1,3-benzodioxol-5-ylsulfonyl)(isobutyl)amino]-2-hydroxy-1-(4-{2-[(methoxycarbonyl)amino]ethoxy}benzyl)propylcarbamate], the IC50 in experiment [1] (setting [4]) is under 1 nM; in experiment [2] (setting [5]), 1 to 10 nM; in experiment [3] (setting [6]) it was under 1 nM.
Turning to `CC(=O)NCCCOc1ccc(C[C@H](NC(=O)O[C@H]2CO[C@H]3OCC[C@H]32)[C@H](O)CN(CC(C)C)S(=O)(=O)c2ccc3c(c2)OCO3)cc1` [Compound 229], the results for the IC50 in experiment [1], in experiment [2] (setting [7]) and in experiment [3] (setting [8]) were 10 to 100 nM, 1 to 10 nM and 1 to 10 nM, respectively.
Consider `CC(=O)NCCCCOc1ccc(C[C@H](NC(=O)O[C@H]2CO[C@H]3OCC[C@H]32)[C@H](O)CN(CC(C)C)S(=O)(=O)c2ccc3c(c2)OCO3)cc1` [Compound 230], for which the results for the IC50 in experiment [1], in experiment [2] (setting [7]) and in experiment [3] (setting [8]) were 10 to 100 nM, 1 to 10 nM and 1 to 10 nM, respectively.
In the case of `CC(C)CN(C[C@@H](O)[C@H](Cc1ccc(OCCCNS(C)(=O)=O)cc1)NC(=O)O[C@H]1CO[C@H]2OCC[C@H]21)S(=O)(=O)c1ccc2c(c1)OCO2` [Compound 251], the IC50 in experiment [1] lay in the range of 10 to 100 nM; in experiment [2] (setting [7]), 1 to 10 nM; in experiment [3] (setting [8]), 1 to 10 nM.
As to `CC(C)CN(C[C@@H](O)[C@H](Cc1ccc(OCCNC(=O)N(C)C)cc1)NC(=O)O[C@H]1CO[C@H]2OCC[C@H]21)S(=O)(=O)c1ccc2c(c1)OCO2` [Compound 253], the results for the IC50 in experiment [1], in experiment [2] (setting [7]) and in experiment [3] (setting [8]) were 10 to 100 nM, 1 to 10 nM and 1 to 10 nM, respectively.
For `CC(C)CN(C[C@@H](O)[C@H](Cc1ccc(OCCCNC(=O)c2ccoc2)cc1)NC(=O)O[C@H]1CO[C@H]2OCC[C@H]21)S(=O)(=O)c1ccc2c(c1)OCO2` [Compound 261, (3R,3aS,6aR)-hexahydrofuro[2,3-b]furan-3-yl (1S,2R)-3-[(1,3-benzodioxol-5-ylsulfonyl)(isobutyl)amino]-1-{4-[3-(3-furoylamino)propoxy]benzyl}-2-hydroxypropylcarbamate], the concentration for half-maximal inhibition (IC50) in experiment [1] (setting [4]), in experiment [2] (setting [9]) and in experiment [3] (setting [10]) was 1 to 10 nM each time.
Consider `CC(C)CN(C[C@@H](O)[C@H](Cc1ccc(OCCN/C(=N/C#N)Oc2ccccc2)cc1)NC(=O)O[C@H]1CO[C@H]2OCC[C@H]21)S(=O)(=O)c1ccc2c(c1)OCO2` [Compound 262, (3R,3aS,6aR)-hexahydrofuro[2,3-b]furan-3-yl (1S,2R)-3-[(1,3-benzodioxol-5-ylsulfonyl)(isobutyl)amino]-1-[4-(2-{[(E and/or Z)-(cyanoimino)(phenoxy)methyl]amino}ethoxy)benzyl]-2-hydroxypropylcarbamate], for which the IC50 in experiment [1] (setting [4]), in experiment [2] (setting [5]) and in experiment [3] (setting [6]) was 1 to 10 nM throughout.
As to `CC(C)CN(C[C@@H](O)[C@H](Cc1ccc(OCCCCN/C(=N/C#N)Oc2ccccc2)cc1)NC(=O)O[C@H]1CO[C@H]2OCC[C@H]21)S(=O)(=O)c1ccc2c(c1)OCO2` [Compound 263, (3R,3aS,6aR)-hexahydrofuro[2,3-b]furan-3-yl (1S,2R)-3-[(1,3-benzodioxol-5-ylsulfonyl)(isobutyl)amino]-1-[4-(4{[(E and/or Z)-(cyanoimino)(phenoxy)methyl]amino}butoxy)benzyl]-2-hydroxypropylcarbamate], the IC50 in experiment [1] (setting [4]), in experiment [2] (setting [9]) and in experiment [3] (setting [10]) was 1 to 10 nM in each case.
For `CC(C)CN(C[C@@H](O)[C@H](Cc1ccc(OCCCNc2ccc(C#N)cn2)cc1)NC(=O)O[C@H]1CO[C@H]2OCC[C@H]21)S(=O)(=O)c1ccc2c(c1)OCO2` [Compound 270, (3R,3aS,6aR)-hexahydrofuro[2,3-b]furan-3-yl (1S,2R)-3-[(1,3-benzodioxol-5-ylsulfonyl)(isobutyl)amino]-1-(4-{3[(5-cyano-2-pyridinyl)amino]propoxy}benzyl)-2-hydroxypropylcarbamate], the IC50 in experiment [1] (setting [4]), in experiment [2] (setting [9]) and in experiment [3] (setting [10]) was 1 to 10 nM each time.
For the molecule `CC(C)CN(C[C@@H](O)[C@H](Cc1ccc(OCCCNc2ccc(C(F)(F)F)cn2)cc1)NC(=O)O[C@H]1CO[C@H]2OCC[C@H]21)S(=O)(=O)c1ccc2c(c1)OCO2` [Compound 272, (3R,3aS,6aR)-hexahydrofuro[2,3-b]furan-3-yl (1S,2R)-3-[(1,3-benzodioxol-5-ylsulfonyl)(isobutyl)amino]-2-hydroxy-1-[4-(3-{[5-(trifluoromethyl)-2-pyridinyl]amino}propoxy)benzyl]propylcarbamate], the IC50 in experiment [1] (setting [4]), in experiment [2] (setting [9]) and in experiment [3] (setting [10]) was 1 to 10 nM throughout.
With `CC(C)CN(C[C@@H](O)[C@H](Cc1ccc(OCCCN(C)C)cc1)NC(=O)O[C@H]1CO[C@H]2OCC[C@H]21)S(=O)(=O)c1ccc2c(c1)OCO2` [Compound 274, (3R,3aS,6aR)-hexahydrofuro[2,3-b]furan-3-yl (1S,2R)-3-[(1,3-benzodioxol-5-ylsulfonyl)(isobutyl)amino]-1-{4-[3-(dimethylamino)propoxy]benzyl}-2-hydroxypropylcarbamate], the IC50 in experiment [1] (setting [4]) fell in the range of 10 to 100 nM; in experiment [2] (setting [9]), 10 to 100 nM; in experiment [3] (setting [10]), 1 to 10 nM.
With `CC(C)CN(C[C@@H](O)[C@H](Cc1ccc(OCCCCN(C)C)cc1)NC(=O)O[C@H]1CO[C@H]2OCC[C@H]21)S(=O)(=O)c1ccc2c(c1)OCO2` [Compound 275, (3R,3aS,6aR)-hexahydrofuro[2,3-b]furan-3-yl (1S,2R)-3-[(1,3-benzodioxol-5-ylsulfonyl)(isobutyl)amino]-1-{4-[4-(dimethylamino)butoxy]benzyl}-2-hydroxypropylcarbamate], the IC50 in experiment [1] (setting [4]) is 10 to 100 nM; in experiment [2] (setting [9]), 10 to 100 nM; in experiment [3] (setting [10]), 1 to 10 nM.
In the case of `CC(C)CN(C[C@@H](O)[C@H](Cc1ccc(OCCCN2CCSC2)cc1)NC(=O)O[C@H]1CO[C@H]2OCC[C@H]21)S(=O)(=O)c1ccc2c(c1)OCO2` [Compound 277, (3R,3aS,6aR)-hexahydrofuro[2,3-b]furan-3-yl (1S,2R)-3-[(1,3-benzodioxol-5-ylsulfonyl)(isobutyl)amino]-2-hydroxy-1-{4-[3-(1,3-thiazolidin-3-yl)propoxy]benzyl}propylcarbamate], the IC50 in experiment [1] (setting [4]), in experiment [2] (setting [9]) and in experiment [3] (setting [10]) was 1 to 10 nM each time.
With `CC(C)CN(C[C@@H](O)[C@H](Cc1ccc(OCCCn2ccnc2)cc1)NC(=O)O[C@H]1CO[C@H]2OCC[C@H]21)S(=O)(=O)c1ccc2c(c1)OCO2` [Compound 278, (3R,3aS,6aR)-hexahydrofuro[2,3-b]furan-3-yl (1S,2R)-3-[(1,3-benzodioxol-5-ylsulfonyl)(isobutyl)amino]-2-hydroxy-1-{4-[3-(1H-imidazol-1-yl)propoxy]benzyl}propylcarbamate], the figures for the IC50 in experiment [1] (setting [4]), in experiment [2] (setting [9]) and in experiment [3] (setting [10]) were 10 to 100 nM, 1 to 10 nM and 1 to 10 nM, respectively.
On to `CC(C)CN(C[C@@H](O)[C@H](Cc1ccc(OCCCN2CCCC2)cc1)NC(=O)O[C@H]1CO[C@H]2OCC[C@H]21)S(=O)(=O)c1ccc2c(c1)OCO2` [Compound 280, (3R,3aS,6aR)-hexahydrofuro[2,3-b]furan-3-yl (1S,2R)-3-[(1,3-benzodioxol-5-ylsulfonyl)(isobutyl)amino]-2-hydroxy-1-{4-[3-(1-pyrrolidinyl)propoxy]-3-benzyl}propylcarbamate], for which the IC50 in experiment [1] was 10 to 100 nM; in experiment [2] (setting [7]) it was 1 to 10 nM; in experiment [3] (setting [8]), 1 to 10 nM.
For the molecule `CC(C)CN(C[C@@H](O)[C@H](Cc1ccc(OCCCN2CCN(C)CC2)cc1)NC(=O)O[C@H]1CO[C@H]2OCC[C@H]21)S(=O)(=O)c1ccc2c(c1)OCO2` [Compound 282, (3R,3aS,6aR)-hexahydrofuro[2,3-b]furan-3-yl (1S,2R)-3-[(1,3-benzodioxol-5-ylsulfonyl)(isobutyl)amino]-2-hydroxy-1-{4-[3-(4-methyl-1-piperazinyl)propoxy]benzyl}propylcarbamate], the IC50 lay within 10 to 100 nM in experiment [1] (setting [4]), 10 to 100 nM in experiment [2] (setting [9]) and 1 to 10 nM in experiment [3] (setting [10]).
